# “Also recorded” adds a separate entry of the source. Read-outs that look alike come from different tables or passages of the source.
# Legend:
# [1] = tested on: tonic convulsions induced by bicuculline, mouse; test: bicuculline-induced tonic convulsions in mouse; type: in vivo; conditions: for anticonvulsant activity against bicuculline (in words): p.o.; for ED50: po, bicuculline s.c.
# Procedure: Further to the MES test in mouse, some compounds were also evaluated in the MES test in rat and in a chemical model of tonic convulsions induced by bicuculline accordingly to the procedure described in Swinyard E. A. et al., Antiepileptic Drugs, 3rd Edition, Raven Press, New York (1989).
# As reference compound FCE 26743 (S)-2-(4-(3-fluorobenzyloxy)benzylamino)propanamide was used, disclosed in the prior art in EP-B1-0400495.
# [2] = tested on: tonic hind limb extensions (maximal electroshock), rat; test: maximal electroshock (MES) test in rat, incl. time course of anticonvulsant activity; type: in vivo; conditions: for Duration of action (time at which the protection is statistically significant) / Peak of activity (time of the maximal effect): MES, equiactive dose; for Duration of action (time at which the protection is statistically significant) / Peak of activity (time of the maximal effect) / ED50 / anticonvulsant activity in rat MES (in words): rat; for Duration of action (time at which the protection is statistically significant) / Peak of activity (time of the maximal effect) / anticonvulsant activity in rat MES (in words): p.o.; for ED50: po
# Procedure: The compounds of the invention were evaluated in some pharmacological tests in order to investigate their potential anticonvulsant activity. To this end, compounds were screened in the maximal electroshock (MES) test. This model is widely used to assess the efficacy of antiepileptic agents against generalized and partial seizures. This study was performed in both rat and mouse by using the experimental procedure described in W. Losher et al., Epilepsy Res., 2 (1988), 145-181. Briefly, a 60 Hz alternate current (mice 50 mA, rats 150 mA) was delivered for 0.2 sec through corneal electrods by means of an electrical stimulator. […] Groups of 10 animals per dose were used and the ED50 was calculated from the dose-effect curve accordingly to Litchfield and Wilcoxon (J. Pharmacol. Exp. Ther., 96 (1949), 99-113).
# In the rat MES model only the time course of anticonvulsant activity was evaluated. Groups of 10 rats were treated at their equiactive dose 30, 60, 120, 240, 360 and 480 min before the establishment of the electroshock. The peak of anticonvulsant activity and the duration of action were then evaluated.
# [3] = tested on: tonic hind limb extensions (maximal electroshock), mouse; test: maximal electroshock (MES) test in mouse, suppression of tonic hind limb extensions; type: in vivo; conditions: for ED50: po, 1 h, read-out: ED50 MES
# [4] = tested on: motor function, mouse; test: horizontal screen test in mouse (impaired motor function, neurotoxicity; therapeutic index); type: in vivo; conditions: for T.I. (in words) / neurotoxicity / impairment of motor coordination (in words): mouse; for T.I. (in words): TD50/ED50; for neurotoxicity / impairment of motor coordination (in words): p.o., horizontal screen; for T.I. (therapeutic index): ratio of TD50 (horizontal screen) and ED50 (MES), mouse p.o.
# Procedure: (§1) In this model mice are placed individually on top of a squire wire screen which is mounted horizontally on a metal rod, which is then rotated 180° so that mice are on the bottom of the screens. Impairment of the motor function is observed from the number of animals that falls from the screen or fail to climb to the top of the screens. The medial neurological toxic dose (TD50) is than calculated as above. The ratio of TD50 and ED50 refers to the therapeutic index (T.I.) for each compound. The T.I. is used to show a useful separation between neurotoxicity and antiepileptic activity. The larger the T.I. would indicate a better separation between the above activities and a good profile as anticonvulsants.
# [5] = as above; type: in vivo; conditions: po, mouse
# Procedure: as §1
# [6] = in vivo; cited from earlier work
# [7] = tested on: electro-shock convulsions, mouse; conditions: claimed in WO 94/22808; cited from earlier work
# [8] = tested on: convulsions; conditions: WO 95/18617 and WO 96/21640; cited from earlier work
# [9] = in vivo, p.o., HCl salts, read-out: TD50 Horizontal screen
# [10] = mouse, p.o., 60 min after administration, HCl salts
# [11] = horizontal screen test, p.o., HCl salts, read-out: TD50 Horizontal screen
structure (smiles),measurement,setting,value
"C[C@H](NCc1ccc(OCc2cccc(F)c2)cc1)C(N)=O [FCE 26743, (S)-2-(4-(3-fluorobenzyloxy)benzylamino)propanamide, reference compound]",anticonvulsant activity against bicuculline (in words),[1],in the same order of potency of their MES anticonvulsant activity
same,ED50,[1],20 mg/kg
same,Duration of action (time at which the protection is statistically significant),[2],1 h
same,Peak of activity (time of the maximal effect),[2],0.5 h
same,ED50,[2],11 mg/kg
same,anticonvulsant activity in rat MES (in words),[2],anticonvulsant activity close to that found in the same model in mouse
"Cl.NC(=O)CNC1Cc2ccccc2C1 [CHF 3381, 2-(2-indanylamino)acetamide hydrochloride]",ED50,[3]; Mus musculus,21 mg/kg
same,anticonvulsant activity / potency in MES (in words),"[3]; mouse, p.o., hydrochloride",more potent in inhibiting MES; also recorded: more potent as an anticonvulsant than the 1-aminoindane of the prior art
same,T.I. (in words),[4],higher T.I. than the prior art 1-aminoindane compound 2
same,neurotoxicity / impairment of motor coordination (in words),[4],more neurotoxic
same,T.I. (therapeutic index),[4],13
same,TD50,[5]; [9],274 mg/kg
"NC(=O)CN[C@H]1CCc2ccccc21 [TEVA Comp. 2, (S)-2-(indanylamino)acetamide, reference compound]",ED50,[3]; [10],38 mg/kg
same,T.I. (therapeutic index),[4],8
same,TD50,[5]; in vivo,299 mg/kg
NC(=O)N1c2ccccc2C=Cc2ccccc21 [carbamazepine],therapeutic index (in words),[6],smaller therapeutic indexes
"CS(=O)(=O)O.NC(=O)C(CO)NCc1ccc(OCCCc2ccccc2)cc1 (stereo not shown) [FCE 28245, 3-hydroxy-2-(4-(3-phenylpropyloxy)benzylamino)propanamide methanesulphonate, reference compound]",ED50,[3]; [10],180 mg/kg
same,anticonvulsant activity in electro-shock convulsions (in words),[7],claimed to be active
same,T.I. (therapeutic index),[4],9
same,TD50,[5]; in vivo,1670 mg/kg
O=C1NC(=O)C(c2ccccc2)(c2ccccc2)N1 [phenytoin],therapeutic index (in words),[6],smaller therapeutic indexes
"NC(=O)CN(CC(N)=O)C1CCc2ccccc21 (stereo not shown) [N,N-di-(2-acetamido)-1-aminoindan]",anticonvulsant activity (in words),[8],not very effective
same,therapeutic index (in words),[8],don't seem endowed with a particularly favorable therapeutic index
"NC(=O)CNC1CCc2ccccc21 (racemic) [racemic N-(2-acetamido)-1-aminoindan, N-(2-acetamido)-1-aminoindan]",anticonvulsant activity (in words),[8],not very effective
same,therapeutic index (in words),[8],don't seem endowed with a particularly favorable therapeutic index
NC(=O)[C@H](CO)N[C@@H]1CCc2ccccc2C1 [CHF 2991],anticonvulsant activity / potency in MES (in words),"[3]; mouse, p.o.",A good profile of anticonvulsant activity
same,ED50,[3]; [10],38 mg/kg
same,T.I. (therapeutic index),[4],29
same,TD50,[5]; [11],1100 mg/kg
"C[C@H](NC1Cc2ccccc2C1)C(N)=O [CHF 3431, (S) 2-(2-indanylamino)propionamide]",anticonvulsant activity / potency in MES (in words),"[3]; mouse, p.o.",more potent in inhibiting MES
same,ED50,[3]; [10],22 mg/kg
same,neurotoxicity / impairment of motor coordination (in words),[4],more neurotoxic
same,T.I. (therapeutic index),[4],11
same,TD50,[5]; [11],251 mg/kg
"Cl.NC(=O)[C@H](CO)NC1Cc2ccccc2C1 [CHF 2993, (S)-3-hydroxy-2-(2-indanylamino)propanamide hydrochloride]",anticonvulsant activity / potency in MES (in words),"[3]; mouse, p.o.",equipotent in the MES test
same,ED50,[3]; [10],44 mg/kg
same,anticonvulsant activity against bicuculline (in words),[1],in the same order of potency of their MES anticonvulsant activity
same,ED50,[1],65 mg/kg
same,T.I. (therapeutic index),[4],27
same,TD50,[5]; [9],1170 mg/kg
same,duration of action (in words),[2]; MES time course,longest duration of action
same,Duration of action (time at which the protection is statistically significant),[2],6 h
same,Peak of activity (time of the maximal effect),[2],3 h
same,ED50,[2],31 mg/kg
same,anticonvulsant activity in rat MES (in words),[2],anticonvulsant activity close to that found in the same model in mouse
NC(=O)CNC1CCc2ccc(F)cc21 (stereo not shown) [N-(2-acetamido)-6-fluoro-1-aminoindan],anticonvulsant activity (in words),[8],not very effective
same,therapeutic index (in words),[8],don't seem endowed with a particularly favorable therapeutic index
NC(=O)CNC1CCCc2ccccc21 (stereo not shown) [N-(2-acetamido)-1-aminotetralin],anticonvulsant activity (in words),[8],not very effective
same,therapeutic index (in words),[8],don't seem endowed with a particularly favorable therapeutic index
"NC(=O)[C@@H](CO)N[C@H]1CCc2ccccc2C1 [CHF 2983, 3-hydroxy-2-(R)-(1,2,3,4-tetrahydro-naphthalen-2-(S)ylamino)propanamide]",anticonvulsant activity / potency in MES (in words),"[3]; mouse, p.o.",A good profile of anticonvulsant activity
same,ED50,[3]; [10],43 mg/kg
same,anticonvulsant activity against bicuculline (in words),[1],in the same order of potency of their MES anticonvulsant activity
same,ED50,[1],62 mg/kg
same,T.I. (therapeutic index),[4],30
same,TD50,[5]; [11],1300 mg/kg
same,Duration of action (time at which the protection is statistically significant),[2],2 h
same,Peak of activity (time of the maximal effect),[2],1 h
same,ED50,[2],19 mg/kg
same,anticonvulsant activity in rat MES (in words),[2],more potent
CC(NC1CCc2ccccc21)C(N)=O (stereo not shown) [N-(2-propionamido)-1-aminoindan],anticonvulsant activity (in words),[8],not very effective
same,therapeutic index (in words),[8],don't seem endowed with a particularly favorable therapeutic index
"CN(C1Cc2ccccc2C1)[C@H](CO)C(N)=O.Cl [CHF 3440, (R)-3-hydroxy-2-(N-methyl-2-indanylamino)propanamide hydrochloride]",anticonvulsant activity / potency in MES (in words),"[3]; mouse, p.o.",same anticonvulsant activity
same,ED50,[3]; [10],35 mg/kg
same,neurotoxicity / impairment of motor coordination (in words),[4],increase of the neurotoxicity
same,T.I. (therapeutic index),[4],20
same,TD50,[5]; [9],689 mg/kg
NC(=O)[C@@H](CO)NC1Cc2ccccc2C1 [CHF 2996],anticonvulsant activity / potency in MES (in words),"[3]; mouse, p.o.",equipotent in the MES test
same,ED50,[3]; [10],34 mg/kg
same,T.I. (in words),[4],higher T.I.
same,neurotoxicity / impairment of motor coordination (in words),[4],low value of neurotoxicity
same,T.I. (therapeutic index),[4],44
same,TD50,[5]; [11],> 1500 mg/kg
same,Duration of action (time at which the protection is statistically significant),[2],2 h
same,Peak of activity (time of the maximal effect),[2],1 h
same,ED50,[2],32 mg/kg
same,anticonvulsant activity in rat MES (in words),[2],anticonvulsant activity close to that found in the same model in mouse
